# Results as given in PubChem BioAssay AID328 (DTP/NCI, 2004).
# Inconclusive results and toxic doses are left out.
# Tested on: BDF1 mice, P388 leukemia ip, median survival T/C
# Experiment: NCI In Vivo Anticancer Drug Screen. Data for tumor model P388 Leukemia (intraperitoneal) in B6D2F1 (BDF1) mice
# Conditions: endpoint: median survival time, higher = longer survival
# Method in brief: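 Transplantable tumour in mice; compound vs vehicle dosing; survival scored; ratio of treated to control reported.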
# [1] = dose: 50.0 mg/kg/injection, schedule: Q01DX009 (ip), vehicle: saline with Tween-80
# [2] = dose: 100.0 mg/kg/injection, schedule: Q04DX003 (ip), vehicle: Klucel (hydroxypropylcellulose) (HPC)
# [3] = dose: 200.0 mg/kg/injection, schedule: Q04DX003 (ip), vehicle: Klucel (hydroxypropylcellulose) (HPC)
# [4] = dose: 400.0 mg/kg/injection, schedule: Q04DX003 (ip), vehicle: Klucel (hydroxypropylcellulose) (HPC)
# [5] = dose: 100.0 mg/kg/injection, schedule: Q04DX003 (ip), vehicle: saline with Tween-80
structure (smiles),measurement,setting,value
CN=C(N)c1ccc(N=C(N)c2ccc(-c3ccc(C(N)=Nc4ccc(C(N)=NC)cc4)cc3)cc2)cc1,T/C,"dose: 3.0 mg/kg/injection, schedule: Q04DX003 (ip), vehicle: saline",118 % of control
same,T/C,"dose: 3.12 mg/kg/injection, schedule: Q01DX009 (ip), vehicle: saline",123 % of control
same,T/C,"dose: 5.5 mg/kg/injection, schedule: Q01DX009 (ip), vehicle: saline",121 % of control
same,T/C,"dose: 6.0 mg/kg/injection, schedule: Q04DX003 (ip), vehicle: saline",118 % of control
same,T/C,"dose: 12.0 mg/kg/injection, schedule: Q04DX003 (ip), vehicle: saline",122 % of control
same,T/C,"dose: 12.5 mg/kg/injection, schedule: Q04DX003 (ip), vehicle: saline",115 % of control
same,T/C,"dose: 18.0 mg/kg/injection, schedule: Q01DX009 (ip), vehicle: saline",96 % of control
COC1CC(C)C(OC)C2=CC(=O)C=C(NC(=O)/C(C)=C/C=C\C(C)C(OC(N)=O)/C(C)=C\C(C)C1OC)C2=O (centres undefined),T/C,"dose: 5.0 mg/kg/injection, schedule: Q01DX009 (ip), vehicle: saline + alcohol",150 % of control
same,T/C,"dose: 10.0 mg/kg/injection, schedule: Q01DX009 (ip), vehicle: saline + alcohol",171 % of control
N#CCCCn1nnc(-c2ccccc2)n1,T/C,[1],100 % of control
same,T/C,"dose: 100.0 mg/kg/injection, schedule: Q01DX009 (ip), vehicle: saline with Tween-80",108 % of control
CCCCC(=O)c1ccc(F)cc1,T/C,"dose: 100.0 mg/kg/injection, schedule: Q01DX009 (ip), vehicle: Klucel (hydroxypropylcellulose) (HPC)",95 % of control
same,T/C,[2],91 % of control
same,T/C,"dose: 200.0 mg/kg/injection, schedule: Q01DX009 (ip), vehicle: Klucel (hydroxypropylcellulose) (HPC)",104 % of control
same,T/C,[3],104 % of control
same,T/C,"dose: 400.0 mg/kg/injection, schedule: Q01DX009 (ip), vehicle: Klucel (hydroxypropylcellulose) (HPC)",109 % of control
same,T/C,[4],91 % of control
CN(C)c1ccc(/C=C/c2ccnc3ccccc23)c(O)c1,T/C,[5],113 % of control
O=C(Cl)C1CC2c3ccccc3C1([N+](=O)[O-])c1ccccc12 (centres undefined),T/C,[2],104 % of control
same,T/C,[3],100 % of control
same,T/C,[4],113 % of control
S=C(NCCNC(=S)[S][Sn]([c]1ccccc1)([c]1ccccc1)[c]1ccccc1)[S][Sn]([c]1ccccc1)([c]1ccccc1)[c]1ccccc1,T/C,"dose: 3.3 mg/kg/injection, schedule: Q01DX009 (ip), vehicle: saline with Tween-80",100 % of control
same,T/C,"dose: 5.0 mg/kg/injection, schedule: Q01DX009 (ip), vehicle: saline with Tween-80",117 % of control
same,T/C,"dose: 7.5 mg/kg/injection, schedule: Q01DX009 (ip), vehicle: saline with Tween-80",108 % of control
same,T/C,[1],115 % of control
CCOc1ccc(Br)cc1/C=N\N=C\c1cc(Br)ccc1OCC,T/C,"dose: 6.0 mg/kg/injection, schedule: Q01DX001 (ip), vehicle: Klucel (hydroxypropylcellulose) (HPC)",87 % of control
same,T/C,"dose: 12.0 mg/kg/injection, schedule: Q01DX001 (ip), vehicle: Klucel (hydroxypropylcellulose) (HPC)",95 % of control
same,T/C,"dose: 25.0 mg/kg/injection, schedule: Q01DX001 (ip), vehicle: Klucel (hydroxypropylcellulose) (HPC)",86 % of control
Nc1nc(SCc2ccccc2Cl)c2ncn(C3OC(CO)C(O)C3O)c2n1 (centres undefined),T/C,"dose: 100.0 mg/kg/injection, schedule: Q01DX009 (ip), vehicle: saline",105 % of control
same,T/C,[2],100 % of control
same,T/C,"dose: 200.0 mg/kg/injection, schedule: Q01DX009 (ip), vehicle: saline",90 % of control
same,T/C,[3],118 % of control
same,T/C,[4],118 % of control
CCN(CC)c1ccc(NC(=O)Nc2ccccc2OC)cc1,T/C,[5],95 % of control
same,T/C,"dose: 200.0 mg/kg/injection, schedule: Q04DX003 (ip), vehicle: saline with Tween-80",100 % of control
same,T/C,"dose: 400.0 mg/kg/injection, schedule: Q04DX003 (ip), vehicle: saline with Tween-80",100 % of control
CCc1ccc(O)c(C(=O)c2c[nH]c(=O)c(C(N)=O)c2)c1,T/C,"dose: 50.0 mg/kg/injection, schedule: Q04DX002 (ip), vehicle: saline with Tween-80",103 % of control
same,T/C,"dose: 100.0 mg/kg/injection, schedule: Q04DX002 (ip), vehicle: saline with Tween-80",94 % of control
same,T/C,"dose: 200.0 mg/kg/injection, schedule: Q04DX002 (ip), vehicle: saline with Tween-80",99 % of control
